Experimental data taken from patent US10004701B2, “Methods and compositions for treating infection” (UNIVERSITY OF ROCHESTER, priority 2012, dated 2018).
Where a name gives a salt, the structure may show the parent alone. Read-outs that look alike come from different tables or passages of the source.

Columns and labels:
Assay in all cases: AK assay 384-well format, Prestwick library screening
[1] = tested on: E. faecium; format: cell-based, Enterococcus faecium; conditions: 50 μM final drug concentration; for fold induction at 50 µM: Enterococcus faecium, 3 h
[2] = tested on: E. cloacae; format: cell-based, Enterobacter cloacae; conditions: 50 μM final drug concentration; for fold induction at 50 µM: Enterobacter cloacae, 3 h
[3] = tested on: K. pneumoniae; format: cell-based, Klebsiella pneumoniae; conditions: 50 μM final drug concentration; for fold induction at 50 µM: Klebsiella pneumoniae, 3 h
[4] = tested on: P. aeruginosa; format: cell-based, Pseudomonas aeruginosa; conditions: 50 μM final drug concentration; for fold induction at 50 µM: Pseudomonas aeruginosa, 3 h
[5] = tested on: A. baumannii strain 98-37-09; format: cell-based, Acinetobacter baumannii; conditions: 50 μM final drug concentration; for fold induction at 50 µM: Acinetobacter baumannii, 983709, 3 h
[6] = tested on: S. aureus strain USA300-0114; format: cell-based, Staphylococcus aureus; conditions: 50 μM final drug concentration; for fold induction at 50 µM: Staphylococcus aureus, USA300, 3 h
[7] = tested on: E. coli; format: cell-based, Escherichia coli; conditions: 50 μM final drug concentration; for fold induction at 50 µM: Escherichia coli, 3 h
[8] = planktonic, cutoff for positive 3-fold increase, read-out: AK-based Prestwick Library Screening Results, E. faecium (fold increase in extracellular AK activity)
[9] = planktonic, cutoff for positive 3-fold increase, read-out: AK-based Prestwick Library Screening Results, E. cloacae (fold increase in extracellular AK activity)
[10] = planktonic, cutoff for positive 3-fold increase, read-out: AK-based Prestwick Library Screening Results, K. pneumoniae (fold increase in extracellular AK activity)
[11] = planktonic, cutoff for positive 3-fold increase, read-out: AK-based Prestwick Library Screening Results, P. aeruginosa (fold increase in extracellular AK activity)
[12] = planktonic, cutoff for positive 3-fold increase, read-out: AK-based Prestwick Library Screening Results, A. baumannii (fold increase in extracellular AK activity)
[13] = planktonic, cutoff for positive 3-fold increase, read-out: AK-based Prestwick Library Screening Results, S. aureus (fold increase in extracellular AK activity)
[14] = planktonic, cutoff for positive 3-fold increase, read-out: AK-based Prestwick Library Screening Results, E. coli (fold increase in extracellular AK activity)
[15] = planktonic E. faecium, 384-well, cutoff for positive-scoring molecules 3-fold increase, read-out: AK-based Prestwick Library Screening Results: E. faecium (increase in extracellular AK activity)
[16] = planktonic E. cloacae, 384-well, cutoff for positive-scoring molecules 3-fold increase, read-out: AK-based Prestwick Library Screening Results: E. cloacae (increase in extracellular AK activity)
[17] = planktonic K. pneumoniae, 384-well, cutoff for positive-scoring molecules 3-fold increase, read-out: AK-based Prestwick Library Screening Results: K. pneumoniae (increase in extracellular AK activity)
[18] = planktonic P. aeruginosa, 384-well, cutoff for positive-scoring molecules 3-fold increase, read-out: AK-based Prestwick Library Screening Results: P. aeruginosa (increase in extracellular AK activity)
[19] = planktonic A. baumannii, 384-well, cutoff for positive-scoring molecules 3-fold increase, read-out: AK-based Prestwick Library Screening Results: A. baumannii (increase in extracellular AK activity)
[20] = planktonic S. aureus, 384-well, cutoff for positive-scoring molecules 3-fold increase, read-out: AK-based Prestwick Library Screening Results: S. aureus (increase in extracellular AK activity)
[21] = planktonic E. coli, 384-well, cutoff for positive-scoring molecules 3-fold increase, read-out: AK-based Prestwick Library Screening Results: E. coli (increase in extracellular AK activity)

**Q.** For `CCS(=O)(=O)CCn1c([N+](=O)[O-])cnc1C` [Tinidazole], which fold induction at 50 µM ([1]; planktonic, cutoff for positive-scoring molecules 3-fold increase, read-out: AK-based Prestwick Library Screening Results, E. faecium (fold increase in extracellular AK activity)) is on record?
**A.** 0.9

**Q.** What about the fold induction at 50 µM ([2]; planktonic, cutoff for positive-scoring molecules 3-fold increase, read-out: AK-based Prestwick Library Screening Results, E. cloacae (fold increase in extracellular AK activity)) of the same molecule?
**A.** 1.5

**Q.** And the fold induction at 50 µM ([3]; planktonic, cutoff for positive-scoring molecules 3-fold increase, read-out: AK-based Prestwick Library Screening Results, K. pneumoniae (fold increase in extracellular AK activity))?
**A.** 0.8

**Q.** What about the fold induction at 50 µM ([4]; planktonic, cutoff for positive-scoring molecules 3-fold increase, read-out: AK-based Prestwick Library Screening Results, P. aeruginosa (fold increase in extracellular AK activity)) of the same molecule?
**A.** 1.1

**Q.** And the fold induction at 50 µM ([5]; planktonic, cutoff for positive-scoring molecules 3-fold increase, read-out: AK-based Prestwick Library Screening Results, A. baumannii (fold increase in extracellular AK activity))?
**A.** 1

**Q.** And the fold induction at 50 µM ([6]; planktonic, cutoff for positive-scoring molecules 3-fold increase, read-out: AK-based Prestwick Library Screening Results, S. aureus (fold increase in extracellular AK activity))?
**A.** 1.2

**Q.** What about the fold induction at 50 µM ([7]; planktonic, cutoff for positive-scoring molecules 3-fold increase, read-out: AK-based Prestwick Library Screening Results, E. coli (fold increase in extracellular AK activity)) of the same molecule?
**A.** 1.2

**Q.** For `NC[C@H]1O[C@H](O[C@H]2[C@H](O)[C@@H](O[C@H]3O[C@H](CO)[C@@H](O)[C@H](N)[C@H]3O)[C@H](N)C[C@@H]2N)[C@H](N)C[C@@H]1O` [Tobramycin], which fold induction at 50 µM [1, 8] is on record?
**A.** 0.9

**Q.** What about the fold induction at 50 µM [2, 9] of the same molecule?
**A.** 1.5

**Q.** What about the fold induction at 50 µM [3, 10] of the same molecule?
**A.** 2

**Q.** What about the fold induction at 50 µM [4, 11] of the same molecule?
**A.** 17.1

**Q.** And the fold induction at 50 µM [5, 12]?
**A.** 5.7

**Q.** And the fold induction at 50 µM [6, 13]?
**A.** 1.1

**Q.** And the fold induction at 50 µM [7, 14]?
**A.** 7.5

**Q.** How did the fold induction at 50 µM ([1]; planktonic E. faecium, positive cutoff 3-fold increase, read-out: AK-based Prestwick library screening result, E. faecium (fold increase in extracellular AK activity)) turn out when `Cc1cccc(C)c1NC(=O)C(C)N` (stereo not shown) [Tocainide hydrochloride] was run?
**A.** 1

**Q.** And the fold induction at 50 µM ([2]; planktonic E. cloacae, positive cutoff 3-fold increase, read-out: AK-based Prestwick library screening result, E. cloacae (fold increase in extracellular AK activity))?
**A.** 1.4

**Q.** And the fold induction at 50 µM ([3]; planktonic K. pneumoniae, positive cutoff 3-fold increase, read-out: AK-based Prestwick library screening result, K. pneumoniae (fold increase in extracellular AK activity))?
**A.** 1.1

**Q.** What about the fold induction at 50 µM ([4]; planktonic P. aeruginosa, positive cutoff 3-fold increase, read-out: AK-based Prestwick library screening result, P. aeruginosa (fold increase in extracellular AK activity)) of the same molecule?
**A.** 1.1

**Q.** And the fold induction at 50 µM ([5]; planktonic A. baumannii, positive cutoff 3-fold increase, read-out: AK-based Prestwick library screening result, A. baumannii (fold increase in extracellular AK activity))?
**A.** 1.6

**Q.** And the fold induction at 50 µM ([6]; planktonic S. aureus, positive cutoff 3-fold increase, read-out: AK-based Prestwick library screening result, S. aureus (fold increase in extracellular AK activity))?
**A.** 1.1

**Q.** And the fold induction at 50 µM ([7]; planktonic E. coli, positive cutoff 3-fold increase, read-out: AK-based Prestwick library screening result, E. coli (fold increase in extracellular AK activity))?
**A.** 1.2

**Q.** Which results are given for `Cc1c(C)c2c(c(C)c1O)CC[C@@](C)(CCC[C@H](C)CCC[C@H](C)CCCC(C)C)O2` [Tocopherol (R,S)]?
**A.** AK-based Prestwick Library Screening Results: E. faecium (increase in extracellular AK activity) ([1]; planktonic E. faecium, 384-well, cutoff for positive-scoring molecules 3-fold increase): 0.9; AK-based Prestwick Library Screening Results: E. cloacae (increase in extracellular AK activity) ([2]; planktonic E. cloacae, 384-well, cutoff for positive-scoring molecules 3-fold increase): 0.4; AK-based Prestwick Library Screening Results: K. pneumoniae (increase in extracellular AK activity) ([3]; planktonic K. pneumoniae, 384-well, cutoff for positive-scoring molecules 3-fold increase): 0.4; AK-based Prestwick Library Screening Results: P. aeruginosa (increase in extracellular AK activity) ([4]; planktonic P. aeruginosa, 384-well, cutoff for positive-scoring molecules 3-fold increase): 0.4; AK-based Prestwick Library Screening Results: A. baumannii (increase in extracellular AK activity) ([5]; planktonic A. baumannii, 384-well, cutoff for positive-scoring molecules 3-fold increase): 0.4; AK-based Prestwick Library Screening Results: S. aureus (increase in extracellular AK activity) ([6]; planktonic S. aureus, 384-well, cutoff for positive-scoring molecules 3-fold increase): 0.4; AK-based Prestwick Library Screening Results: E. coli (increase in extracellular AK activity) ([7]; planktonic E. coli, 384-well, cutoff for positive-scoring molecules 3-fold increase): 0.6

**Q.** `CCOC(=O)NNc1nncc2ccccc12` [Todralazine hydrochloride] was tested. Which fold induction at 50 µM [1, 15] did it give?
**A.** 0.8

**Q.** And the fold induction at 50 µM [2, 16]?
**A.** 1.7

**Q.** What about the fold induction at 50 µM [3, 17] of the same molecule?
**A.** 1

**Q.** And the fold induction at 50 µM [4, 18]?
**A.** 1.1

**Q.** And the fold induction at 50 µM [5, 19]?
**A.** 1.1

**Q.** And the fold induction at 50 µM [6, 20]?
**A.** 1.3

**Q.** What about the fold induction at 50 µM [7, 21] of the same molecule?
**A.** 1.3

**Q.** Which results are given for `Cc1ccc(S(=O)(=O)NC(=O)NN2CCCCCC2)cc1` [Tolazamide]?
**A.** fold induction at 50 µM [1, 8]: 1; fold induction at 50 µM [2, 9]: 1.6; fold induction at 50 µM [3, 10]: 1.4; fold induction at 50 µM [4, 11]: 1.4; fold induction at 50 µM [5, 12]: 1.2; fold induction at 50 µM [6, 13]: 1; fold induction at 50 µM [7, 14]: 1.5

**Q.** How did the fold induction at 50 µM [1, 15] turn out when `c1ccc(CC2=NCCN2)cc1` [Tolazoline hydrochloride] was run?
**A.** 1

**Q.** And the fold induction at 50 µM [2, 16]?
**A.** 1.5

**Q.** What about the fold induction at 50 µM [3, 17] of the same molecule?
**A.** 1

**Q.** What about the fold induction at 50 µM [4, 18] of the same molecule?
**A.** 1.1

**Q.** And the fold induction at 50 µM [5, 19]?
**A.** 1.3

**Q.** And the fold induction at 50 µM [6, 20]?
**A.** 1.2

**Q.** And the fold induction at 50 µM [7, 21]?
**A.** 1.4

**Q.** What does the source list for `CCCCNC(=O)NS(=O)(=O)c1ccc(C)cc1` [Tolbutamide]?
**A.** fold induction at 50 µM ([1]; 384-well format, cutoff for positive-scoring molecules 3-fold increase, read-out: AK-based Prestwick Library Screening Results, E. faecium (increase in extracellular AK activity)): 1; fold induction at 50 µM ([2]; 384-well format, cutoff for positive-scoring molecules 3-fold increase, read-out: AK-based Prestwick Library Screening Results, E. cloacae (increase in extracellular AK activity)): 1; fold induction at 50 µM ([3]; 384-well format, cutoff for positive-scoring molecules 3-fold increase, read-out: AK-based Prestwick Library Screening Results, K. pneumoniae (increase in extracellular AK activity)): 0.8; fold induction at 50 µM ([4]; 384-well format, cutoff for positive-scoring molecules 3-fold increase, read-out: AK-based Prestwick Library Screening Results, P. aeruginosa (increase in extracellular AK activity)): 0.9; fold induction at 50 µM ([5]; 384-well format, cutoff for positive-scoring molecules 3-fold increase, read-out: AK-based Prestwick Library Screening Results, A. baumannii (increase in extracellular AK activity)): 0.9; fold induction at 50 µM ([6]; 384-well format, cutoff for positive-scoring molecules 3-fold increase, read-out: AK-based Prestwick Library Screening Results, S. aureus (increase in extracellular AK activity)): 0.7; fold induction at 50 µM ([7]; 384-well format, cutoff for positive-scoring molecules 3-fold increase, read-out: AK-based Prestwick Library Screening Results, E. coli (increase in extracellular AK activity)): 0.8

**Q.** How did the fold induction at 50 µM [1, 15] turn out when `Cc1c(Cl)cccc1Nc1ccccc1C(=O)O` [Tolfenamic acid] was run?
**A.** 1.1

**Q.** What about the fold induction at 50 µM [2, 16] of the same molecule?
**A.** 1.6

**Q.** What about the fold induction at 50 µM [3, 17] of the same molecule?
**A.** 0.8

**Q.** What about the fold induction at 50 µM [4, 18] of the same molecule?
**A.** 1.2

**Q.** And the fold induction at 50 µM [5, 19]?
**A.** 1.4

**Q.** What about the fold induction at 50 µM [6, 20] of the same molecule?
**A.** 0.5

**Q.** And the fold induction at 50 µM [7, 21]?
**A.** 1

**Q.** What does the source list for `Cc1ccc(C(=O)c2ccc(CC(=O)O)n2C)cc1` [Tolmetin sodium salt dihydrate]?
**A.** fold induction at 50 µM ([1]; cutoff for positive-scoring molecules 3-fold increase, read-out: AK-based Prestwick Library Screening Results, E. faecium (fold increase in extracellular AK activity)): 0.8; fold induction at 50 µM ([2]; cutoff for positive-scoring molecules 3-fold increase, read-out: AK-based Prestwick Library Screening Results, E. cloacae (fold increase in extracellular AK activity)): 2; fold induction at 50 µM ([3]; cutoff for positive-scoring molecules 3-fold increase, read-out: AK-based Prestwick Library Screening Results, K. pneumoniae (fold increase in extracellular AK activity)): 0.6; fold induction at 50 µM ([4]; cutoff for positive-scoring molecules 3-fold increase, read-out: AK-based Prestwick Library Screening Results, P. aeruginosa (fold increase in extracellular AK activity)): 1; fold induction at 50 µM ([5]; cutoff for positive-scoring molecules 3-fold increase, read-out: AK-based Prestwick Library Screening Results, A. baumannii (fold increase in extracellular AK activity)): 0.8; fold induction at 50 µM ([6]; cutoff for positive-scoring molecules 3-fold increase, read-out: AK-based Prestwick Library Screening Results, S. aureus (fold increase in extracellular AK activity)): 0.9; fold induction at 50 µM ([7]; cutoff for positive-scoring molecules 3-fold increase, read-out: AK-based Prestwick Library Screening Results, E. coli (fold increase in extracellular AK activity)): 0.9
